According to ChEMBL document CHEMBL1137962, “New heteroarylbenzenesulphonamides as matrix metalloproteinase inhibitors” (Bioorg Med Chem Lett, 2004):

What was measured:
[1] = biological target: Matrix metalloproteinase-9 (Homo sapiens, UniProt P14780); assay: Inhibition of matrix metalloprotease-9
[2] = biological target: 72 kDa type IV collagenase (Homo sapiens, UniProt P08253); assay: Inhibition of matrix metalloprotease-2
72 kDa type IV collagenase, sequence (P08253 whole entry): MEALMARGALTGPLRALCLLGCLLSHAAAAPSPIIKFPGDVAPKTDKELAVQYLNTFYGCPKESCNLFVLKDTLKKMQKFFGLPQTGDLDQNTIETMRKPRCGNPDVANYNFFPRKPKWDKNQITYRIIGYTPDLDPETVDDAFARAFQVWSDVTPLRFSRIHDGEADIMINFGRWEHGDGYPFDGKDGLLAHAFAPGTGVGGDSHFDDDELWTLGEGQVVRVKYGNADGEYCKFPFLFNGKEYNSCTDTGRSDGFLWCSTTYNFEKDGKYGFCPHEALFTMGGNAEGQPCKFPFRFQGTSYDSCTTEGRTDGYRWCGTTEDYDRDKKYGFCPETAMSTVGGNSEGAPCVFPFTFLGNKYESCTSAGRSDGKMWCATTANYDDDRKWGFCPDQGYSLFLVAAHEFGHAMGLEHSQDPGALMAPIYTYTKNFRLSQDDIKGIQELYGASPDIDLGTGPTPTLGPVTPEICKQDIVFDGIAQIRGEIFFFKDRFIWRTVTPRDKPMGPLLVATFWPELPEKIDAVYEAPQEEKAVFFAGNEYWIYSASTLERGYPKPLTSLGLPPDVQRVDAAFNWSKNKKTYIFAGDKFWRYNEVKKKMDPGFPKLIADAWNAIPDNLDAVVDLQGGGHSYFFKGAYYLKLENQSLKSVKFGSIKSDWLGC

Matrix metalloproteinase-9, sequence (P14780 whole entry): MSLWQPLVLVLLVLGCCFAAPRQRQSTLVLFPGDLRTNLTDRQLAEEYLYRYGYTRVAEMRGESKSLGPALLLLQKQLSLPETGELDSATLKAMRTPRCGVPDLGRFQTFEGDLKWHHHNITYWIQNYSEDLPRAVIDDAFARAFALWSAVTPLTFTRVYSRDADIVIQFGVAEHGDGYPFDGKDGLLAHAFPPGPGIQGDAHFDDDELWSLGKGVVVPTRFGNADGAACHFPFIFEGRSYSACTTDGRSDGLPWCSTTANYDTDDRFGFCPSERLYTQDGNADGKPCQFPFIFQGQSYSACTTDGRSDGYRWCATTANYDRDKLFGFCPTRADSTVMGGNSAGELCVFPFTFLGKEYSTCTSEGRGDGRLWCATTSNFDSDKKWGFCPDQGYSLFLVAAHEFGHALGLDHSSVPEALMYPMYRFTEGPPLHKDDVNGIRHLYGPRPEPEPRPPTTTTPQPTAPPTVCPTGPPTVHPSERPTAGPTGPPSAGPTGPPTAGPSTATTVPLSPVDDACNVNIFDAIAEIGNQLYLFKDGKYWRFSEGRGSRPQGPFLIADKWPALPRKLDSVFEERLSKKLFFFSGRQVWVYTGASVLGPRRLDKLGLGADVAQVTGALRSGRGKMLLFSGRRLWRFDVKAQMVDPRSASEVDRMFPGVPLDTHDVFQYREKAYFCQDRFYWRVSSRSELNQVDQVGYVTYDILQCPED

| Structure (SMILES) | IC50 [1] | IC50 [2] |
| --- | --- | --- |
| COc1ccc(-c2cnc(-c3ccc(S(=O)(=O)NC(CCC(=O)O)C(=O)O)cc3)s2)cc1 (centres undefined) | 0.05 µM | 0.05 µM |
| COc1ccc(-c2cnc(-c3ccc(S(=O)(=O)NC(C(=O)O)C(C)C)cc3)s2)cc1 (centres undefined) | 0.7 µM | 0.2 µM |
| CNC(=O)[C@@H](CC(=O)[C@H](CC(C)C)[C@H](CSc1ccccc1)C(=O)NO)Cc1ccccc1 | 0.2 µM | 0.2 µM |
| COc1ccc(-c2cnc(-c3ccc(S(=O)(=O)NC(C(=O)O)C(C)C)cc3)o2)cc1 (centres undefined) | 1 µM | 1 µM |
| COc1ccc(-c2cnc(-c3ccc(S(=O)(=O)NC(C(=O)NO)C(C)C)cc3)s2)cc1 (centres undefined) | 0.9 µM | 0.4 µM |
| COc1ccc(-c2cnc(-c3ccc(S(=O)(=O)NC(C(=O)CCC(=O)O)C(C)C)cc3)o2)cc1 (centres undefined) | 10 µM | 10 µM |
| COc1ccc(-c2cnc(-c3ccc(S(=O)(=O)NC(C(=O)NO)C(C)C)cc3)o2)cc1 (centres undefined) | 1 µM | 1 µM |
